Measured values published in patent EP1271240B1, “Silver halide color photographic material” (KONICA CORPORATION, priority 2001, dated 2003).

Experiment: Dissolution temperature of coupler in tricresyl phosphate and ethyl acetate
Format: physicochemical
Conditions: 1 g coupler, tricresyl phosphate of equal weight and ethyl acetate of three times the weight; temperature at which the coupler was completely dissolved
Text: Structures of comparative couplers a to e are respectively shown below. [drawing 115] [drawing 116] [drawing 117] [drawing 118] [drawing 119]

SMILES | Dissolution Temperature [°C]
CCC(C)(C)c1ccc(OCCCCNC(=O)c2nn3c(-c4cc(Cl)cc(Cl)c4)n[nH]c3c2Cl)c(C(C)(C)CC)c1 [Coupler b] | 60
CCC(C)(C)c1ccc(OCCCCNC(=O)C(NC(=O)c2nn3c(-c4ccc(Cl)c(Cl)c4)n[nH]c3c2Cl)C(C)C)c(C(C)(C)CC)c1 (centres unmarked) [Coupler d] | 60
